Measurements reported in patent publication US20250032439A1, “NOVEL COMPOSITIONS” (DSM IP ASSETS B.V., priority 2021, published 2025).

Target: T1, human 5-HT2B receptor (Homo sapiens, UniProt P41595)
T1 construct: expressed in transfected cells; host or cells: CHO cells
Assay: Antagonism of human serotonin 5-HT2B, IP1 functional assay (HTRF) in transfected CHO cells
Format: cell-based
Settings: inhibition of IP1 production induced by 30 nM 5-HT
Method: The human 5-HT2B receptor expressed in transfected CHO cells is used to determine antagonistic effects by measuring the effects on agonist-induced inositol monophosphate (IP1) production using the HTRF® detection method (Porter et al., 1999, Brit. J. Pharmacol., 128: 13-20; Trinquet et al., 2006, Analytical Biochemistry 358, 126-135) The CHO cells can be suspended in a buffer containing 10 mM Hepes/NaOH (pH 7.4), 4.2 mM KCl, 146 mM NaCl, 1 mM CaCl2, 0.5 mM MgCl2, 5.5 mM glucose and 50 mM LiCl, then distributed in microtiter plates at a density of about 20000 cells/well and preincubated for 5 min at room temperature in the presence of buffer (basal control), test compound, i.e. reference samples and inventive mixture of retinyl acetate (“retAc”) (see Table 1) or a very potent known reference antagonist SB-206553. Thereafter, the reference agonist 5-HT (serotonin) is added at a final concentration of 30 nM. […] Following 30 min incubation at 37° C., the cells are lysed and the fluorescence acceptor (D2-labeled IP1) and fluorescence donor (anti-IP1 antibody labeled with europium cryptate) are added. After 60 min at room temperature, the fluorescence transfer is measured at wavelengths Ex=337 nm and Em=620 and 665 nm using a microplate reader (Envision, Perkin Elmer). The IP1 concentration can be determined by dividing the signal measured at 665 nm by that measured at 620 nm (ratio). The results are expressed as a percent inhibition of the control response to 30 nM 5-HT. Mean values, standard deviation are calculated and used in a dose response model to calculate the IC50 values.
The standard reference antagonist SB-206553 is tested in each experiment at several concentrations to generate a concentration-response curve. The dose response curve is used to calculate the IC50 value. The same procedure is done for RetAc mix and the Reference RetAc to determine the IC50 values.

T1 sequence (P41595 whole entry): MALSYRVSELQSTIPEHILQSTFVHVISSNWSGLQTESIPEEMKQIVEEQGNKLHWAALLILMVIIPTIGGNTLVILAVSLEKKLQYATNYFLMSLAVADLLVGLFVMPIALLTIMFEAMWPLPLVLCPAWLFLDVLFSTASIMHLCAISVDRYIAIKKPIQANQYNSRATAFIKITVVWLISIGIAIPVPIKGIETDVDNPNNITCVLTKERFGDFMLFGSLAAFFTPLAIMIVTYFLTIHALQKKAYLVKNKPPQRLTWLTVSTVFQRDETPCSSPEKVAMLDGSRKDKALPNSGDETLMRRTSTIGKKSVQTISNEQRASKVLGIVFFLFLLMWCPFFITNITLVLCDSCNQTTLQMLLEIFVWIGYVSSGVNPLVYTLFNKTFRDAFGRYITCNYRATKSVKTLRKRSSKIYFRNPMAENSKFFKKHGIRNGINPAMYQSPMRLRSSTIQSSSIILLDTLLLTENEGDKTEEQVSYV

| IC50 [µM] | SMILES |
| --- | --- |
| 12 | CC(=O)OC/C=C(C)/C=C/C=C(C)/C=C/C1=C(C)CCCC1(C)C [Reference retAc, retinyl acetate] |
| 5.2 | CC(=O)OC/C=C(C)/C=C/C=C(C)/C=C/C1=C(C)CCCC1(C)C [RetAc mix, retinyl acetate] |

| SMILES | IC50 [µM] |
| --- | --- |
| Cn1ccc2cc3c(cc21)CCN3C(=O)Nc1cccnc1 [SB-206553] | 0.026 |
